Tests used:
U87MG cells [1] = assay: In vitro phototoxicity, MTT assay; type: cell-based, human; settings: 10 μM
Procedure: To investigate the photodynamic effects of TPP-Ce6-loaded EVs, the viability of U87MG cells after various treatments in the presence or absence of laser irradiation was measured using a standard MTT assay. U87MG cells were treated with Ce6, TPP-Ce6, and bEV(TPP-Ce6) at an equivalent Ce6 (or TPP-Ce6) concentration (10 μM, 5.38×10^10 bEVs/mL). Cytotoxicity of blank bEVs against U87 cells was also assessed at various concentrations of bEVs. After 4 h of treatments, the cells were illuminated with a 660 nm laser for 1 min. The cells not subjected to light irradiation were adopted as a negative control. The cells were further incubated for 24 h, and their viabilities were measured.

[2] = system: luciferase-expressing U87MG brain tumors; assay: In vivo anti-brain tumor efficacy with laser irradiation; parameters: species or system mice
Procedure: (§1) All animal experiments were approved by the Institutional Animal Care and Use Committee at Gachon University (Approval number: LCDI-2017-0131). Orthotopic GBM-xenografted mice were prepared using U87MG cells stably expressing luciferase. Briefly, male athymic mice of 5 weeks of age (20-30 g) were placed on a stereotactic device (Harvard Apparatus, USA) under inhalation anesthesia using 1-1.5% isoflurane. U87MG-luc cells (1×10^5 cells) suspended in 2 μL of PBS were injected into the right striatum at a flow rate of 0.5 μL/min through a small hole in the skull at a position 2.0 mm lateral, 0.2 mm anterior, and 3.2 mm ventral to the bregma. The formation of brain tumors in the mice was identified by bioluminescence intensity (BLI).
The orthotopic GBM-bearing mice were randomly divided into five groups (n=4) and injected with one of the following regimens by i.v. injection dose of 0.8 μmol/kg Ce6 (or TPP-Ce6) via the tail vein: • (i) PBS, • (ii) PBS+L (L indicates light irradiation), • (iii) Ce6 (0.8 μmol/kg)+L, • (iv) TPP-Ce6 (0.8 μmol/kg)+L, and • (v) bEV(TPP-Ce6) (0.8 μmol/kg)+L.
At 4 h post-injection, the tumor sites of the mice were irradiated with a 660-nm laser (150 mW, 5 min) on the skull. […] Regions of bioluminescence signal were determined using Aura imaging software (Spectral Instruments Imaging). […]

U87MG cells [3] = assay: JC-1 staining assay (mitochondrial membrane potential); type: cell-based, human; settings: 10 μM, 4 h, 660-nm laser 1 min
Procedure: Changes in the mitochondria membrane potentials of U87MG cells after various treatments were evaluated using a conventional JC-1 staining assay. U87MG cells were cultured in 12-well plates (3×10^5 cells/well) 24 h before treatment with Ce6, TPP-Ce6, and bEV(TPP-Ce6) (10 µM of Ce6 or TPP-Ce6). After 4 h of incubation, the cells were exposed to a 660-nm laser for 1 min. The untreated cells were adopted as a control. Then, the irradiated cells were treated with JC-1 solution in PBS (2.5 μg/mL) for 20 min in the dark, then rinsed twice with PBS. Fluorescent images of the cells were obtained by fluorescence microscopy (Nikon Eclipse Ti—S). Red fluorescence signals indicate the JC-1 aggregates in polarized mitochondria of healthy cells whereas green fluorescence signals reflect the JC-1 monomers in depolarized mitochondria, which indicates the loss in mitochondrial membrane potential, an indicator of mitochondrial damage.

[4] = system: orthotopic GBM-xenografted mice; assay: In vivo biodistribution and brain-tumor accumulation by IVIS; settings: i.v. 0.8 μmol/kg
Procedure: as §1
To evaluate in vivo real-time biodistribution of Ce6, TPP-Ce6, and bEV(TPP-Ce6), orthotopic GBM-xenografted mice (n=4) were intravenously administered with 100 μL of each sample (0.8 μmol/kg for Ce6 or TPP-Ce6). Whole-body fluorescence images were acquired at the predetermined time points within 24 h after i.v. injection using an IVIS optical imaging system with a long wavelength emission filter (640-720 nm) (Ami HT imaging system, Spectral Instruments Imaging, Tucson, AZ, USA). Quantitative analysis of fluorescence intensity in the images was carried out using the region of interest (ROI) function of Aura Imaging 2.20 software (Spectral Instruments Imaging). […]

U87MG cells [5] = assay: Intracellular ROS generation (DCF-DA); type: cell-based, human
Procedure: (§2) The generation of ROS by Ce6 and TPP-Ce6 before and after 660 nm laser treatment was quantified using 2′,7′-dichlorofluorescein (DCF) in a cell-free system. After the sample solutions were treated with DCF for 1 h in the dark, ROS generation was determined by measuring the fluorescence signal from the samples. The intracellular ROS production in U87MG cells after various treatments was measured using DCF-DA. U87MG cells were inoculated into 12 well-plates at a density of 3×10^5 cells/well and cultured overnight. After the cells were incubated with 10 μM DCF-DA for 15 min, they were treated with Ce6, TPP-Ce6, and bEV(TPP-Ce6) at a TPP-Ce6 (or Ce6) concentration of 10 μM. After 4 h of incubation, the cells were trypsinized and divided into two groups. One of the groups was treated with a 660 nm laser for 1 min. The cells not subjected to laser treatment were kept as a control. After 30 min of incubation in the dark, relative ROS generation levels of each sample were quantified by flow cytometry (CytoFLEX).
To visualize ROS generation by TPP-Ce6 and bEV(TPP-Ce6) in U87MG cells under light irradiation, the cells were inoculated into 12-well plates (3×10^5 cells/well) and stained with 10 μM of DCF-DA. […] The green fluorescence signals indicating intracellular ROS were observed using a fluorescence microscope (Nikon Eclipse Ti-S, Nikon, Tokyo, Japan).

U87MG cells [6] = assay: Intracellular localization by CLSM, MitoTracker Green; type: cell-based, human; settings: free Ce6 or TPP-Ce6, 2 h
Procedure: U87MG and bEnd.3 cells (2×10^3 cells/well) were prepared in glass-bottom dishes (35×10 mm^2) and incubated for 24 h. Free Ce6, free TPP-Ce6, and bEV(TPP-Ce6) in serum-free medium were added to the cells at a final TPP-Ce6 (or Ce6) concentration of 0.15 μM. After 2 h of incubation at 37° C., the cells were washed three times with PBS and stained with 1 μg/mL DAPI (Thermo Fisher Scientific) for 10 min. Then, the cells were stained with 1 μM of LysoTracker Green DND-26 (Thermo Fisher Scientific) and 500 nM of MitoTracker Green FM (Thermo Fisher Scientific) for endo/lysosome and mitochondria staining, respectively. The glass-bottom dish was placed in live-cell chamber systems (5% CO2 at 37° C.) connected to a CLSM (Al Plus, Nikon, Japan). The obtained fluorescent images were analyzed for the quantification of colocalization ratios.

[7] = ROS generation in cell-free system (DCF); settings: before and after 660-nm laser treatment
Procedure: as §2

**Q.** Which results are given for chlorin e6 [Ce6]?
**A.** Cell viability under light irradiation (U87MG cells [1]; 660 nm laser 1 min, 24 h): 72.5%; Viability / cytotoxicity without light (U87MG cells [1]; no light irradiation): slightly decreased; H&E staining of brain tumor tissue ([2]; day 9, upon light irradiation): low cell density and nuclear shrinkage; Tumor growth (bioluminescence intensity) ([2]; i.v. 0.8 μmol/kg, 660 nm laser 5 min at 4 h, 9 days): limited suppression of tumor growth; JC-1 red fluorescence / red to green fluorescence ratio (U87MG cells [3]): drastically decreased; Fluorescence in the brain ([4]; 24 h post-injection): weak fluorescence signals; Whole brain-to-whole body fluorescence intensity ratio, time course ([4]; whole body at 1 min): similar; Relative intracellular ROS level, effect of light (U87MG cells [5]; after light irradiation (660 nm, 1 min) vs before): significantly increased after 1 min of light exposure; DCF-DA fluorescence signals (images) (U87MG cells [5]; without light): weak fluorescence signals; Mander's overlap coefficient with MitoTracker Green (U87MG cells [6]): 0.31±0.03; Relative ROS level in cell-free system [7]: significantly increased the ROS generation
